Source: patent US20240101576A1, “HETEROCYCLIC INHIBITORS OF EGFR AND/OR HER2, FOR USE IN THE TREATMENT OF CANCER” (Scorpion Therapeutics, Inc., priority 2020, published 2024)

Tests used:
Type in all cases: cell-based
[1] = biological target: T1, EGFR exon 20 SVD Ins D770_N771 (Ba/F3 cells) (Homo sapiens, UniProt P00533, INS770SVD); assay: Inhibitor activity on EGFR-dependent cell growth (CellTiter-Glo, 72 h), Ba/F3 EGFR exon 20 SVD Ins; settings: read-out: BaF3 SVD IC50
T1 construct: expressed in transfected cells; host or cells: Ba/F3 (murine pro-B cells), retroviral transduction, puromycin selection, IL3-independent pool
How it was run: (§1)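 IC50s derive from a sigmoidal dose–response fit of CellTiter-Glo signal. The signal was normalised between […]-treated cells and cell-free medium. Ba/F3 mutant-EGFR cells, seeded at 400–800/well depending on the line, had 72 h of exposure to a 10-point, 3-fold compound series.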

[2] = biological target: T2, EGFR exon 20 FQEA Ins A763_V764 (Ba/F3 cells) (Homo sapiens, UniProt P00533, INS763FQEA); assay: Inhibitor activity on EGFR-dependent cell growth (CellTiter-Glo, 72 h), Ba/F3 EGFR exon 20 FQEA Ins; settings: read-out: BaF3 FQEA IC50
T2 construct: expressed in transfected cells; host or cells: Ba/F3 (murine pro-B cells), retroviral transduction, puromycin selection, IL3-independent pool
How it was run: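 Ba/F3, retrovirally transduced, puromycin-selected, grown without IL3; cells/well: L858R 400, L858R/C797S 600, exon 19del 800, FQEA 800. Cpds from 10 mM DMSO stock, 3-fold ×10 dilution, 120 nL per well; 72 h. CTG readout; IC50 via Hill equation.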

[3] = biological target: T3, EGFR exon 20 ASV Ins V769_D770 (Ba/F3 cells) (Homo sapiens, UniProt P00533, INS769ASV); assay: Inhibitor activity on EGFR-dependent cell growth (CellTiter-Glo, 72 h), Ba/F3 EGFR exon 20 ASV Ins; settings: read-out: BaF3 ASV IC50
T3 construct: expressed in transfected cells; host or cells: Ba/F3 (murine pro-B cells), retroviral transduction, puromycin selection, IL3-independent pool
How it was run: as §1

EGFR WT (Ba/F3 cells) = biological target: T4, EGFR WT (Ba/F3 cells) (Homo sapiens, UniProt P00533); assay: Inhibitor activity on EGFR-dependent cell growth (CellTiter-Glo, 72 h), Ba/F3 EGFR WT; settings: read-out: BaF3 WT IC50
T4 construct: expressed in transfected cells; host or cells: Ba/F3 (murine pro-B cells), retroviral transduction, puromycin selection, maintained with EGF
How it was run: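 This growth assay used Ba/F3 cells that depend on wild-type EGFR and are kept in EGF without IL3. Compounds were made up as 10 mM DMSO stocks and diluted 3-fold over 10 points. 120 nL went onto 600 cells/well. After 72 hours, 40 μL CellTiter-Glo was added and luminescence read on EnVision after 30 min.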

[4] = biological target: T3, EGFR exon 20 ASV Ins V769_D770 (Ba/F3 cells); assay: Inhibitor activity on EGFR phosphorylation (pEGFR AlphaLISA, 2 h), Ba/F3 EGFR exon 20 ASV Ins; settings: EGFR phosphorylation, AlphaLISA, 2 hours; read-out: ASV IC50 (pEGFR)
From the text: Example B. Inhibitor Activity on EGFR phosphorylation (pEGFR)
EGFR mutant Ba/F3 cells were generated by transduction with retrovirus containing vectors expressing EGFR L858R, EGFR exon 19del, EGFR L858R/C797S, EGFR exon 20 NPG Ins D770_N771, EGFR exon 20 ASV Ins V769_D770, or EGFR exon 20 SVD Ins D770_N771 genes along with a puromycin selection marker. Transduced cells are selected with puromycin for 7 days and are then be transferred into culture media without Interleukin 3 (IL3). Surviving cells are confirmed to express EGFR by Western blot and maintained as a pool. CUTO14 cells were obtained from Dr. Robert C. Doebele at the University of Colorado. The IC50 date are included in Table 6 and Table 7.
1.1 Cells are harvested from flask into cell culture medium and the cell number counted.
1.2 Cells are diluted with culture medium to the desired density and 40 μL of cell suspension is added into each well of 384-well cell culture plate and the seeding density is 50K cells/well (Ba/F3) or 12.5K cells/well (CUTO14).
2 Compound Preparation and Treatment
2.1 Test compounds are dissolved to 10 mM in a DMSO stock solution. 45 μL of stock solution is transferred to a 384 polypropylene plate (pp-plate). Perform 3-fold, 10-point dilution via transferring 15 μL compound into 30 μL DMSO using a TECAN (EVO200) liquid handler.
2.2 Spin plates at room temperature at 1,000 RPM for 1 minute.
2.3 Transfer 5 nL of diluted compound from compound source plate into the cell plate.
2.4 After compound treatment for 2 hours, perform pEGFR detection by AlphaLISA for compound treatment plates as described in “Detection” section.
3 Detection by pEGFR AlphaLISA (Perkin-Elmer)
3.1 Plates are removed from incubators and equilibrated at room temperature for 10 minutes, and media was removed
3.2 10 μL of lysis buffer is added and plates shaken at 600 rpm for 1 hr.
3.3 Prepare acceptor mix just before use and dispense 5 μL of acceptor mix to all the wells. Shake 350 rpm for Ihr in the dark
3.4 Prepare donor mix under low light conditions prior to use. Dispense 5 μL of donor mix to all the wells. Mix well on the shaker, seal and wrap in aluminum foil and incubate 1.5 hrs at room temperature in the dark
3.5 Transfer 18.5 μL mixture to OptiPlate 384, and read using an Envision. The IC50 date were included in Table 6 and Table 7.

[5] = biological target: T5, EGFR exon 20 NPG Ins D770_N771 (Ba/F3 cells) (Homo sapiens, UniProt P00533, INS770NPG); assay: Inhibitor activity on EGFR-dependent cell growth (CellTiter-Glo, 72 h), Ba/F3 EGFR exon 20 NPG Ins; settings: read-out: BaF3 NPG IC50
T5 construct: expressed in transfected cells; host or cells: Ba/F3 (murine pro-B cells), retroviral transduction, puromycin selection, IL3-independent pool
How it was run: as §1

T4 sequence (P00533 25-1210): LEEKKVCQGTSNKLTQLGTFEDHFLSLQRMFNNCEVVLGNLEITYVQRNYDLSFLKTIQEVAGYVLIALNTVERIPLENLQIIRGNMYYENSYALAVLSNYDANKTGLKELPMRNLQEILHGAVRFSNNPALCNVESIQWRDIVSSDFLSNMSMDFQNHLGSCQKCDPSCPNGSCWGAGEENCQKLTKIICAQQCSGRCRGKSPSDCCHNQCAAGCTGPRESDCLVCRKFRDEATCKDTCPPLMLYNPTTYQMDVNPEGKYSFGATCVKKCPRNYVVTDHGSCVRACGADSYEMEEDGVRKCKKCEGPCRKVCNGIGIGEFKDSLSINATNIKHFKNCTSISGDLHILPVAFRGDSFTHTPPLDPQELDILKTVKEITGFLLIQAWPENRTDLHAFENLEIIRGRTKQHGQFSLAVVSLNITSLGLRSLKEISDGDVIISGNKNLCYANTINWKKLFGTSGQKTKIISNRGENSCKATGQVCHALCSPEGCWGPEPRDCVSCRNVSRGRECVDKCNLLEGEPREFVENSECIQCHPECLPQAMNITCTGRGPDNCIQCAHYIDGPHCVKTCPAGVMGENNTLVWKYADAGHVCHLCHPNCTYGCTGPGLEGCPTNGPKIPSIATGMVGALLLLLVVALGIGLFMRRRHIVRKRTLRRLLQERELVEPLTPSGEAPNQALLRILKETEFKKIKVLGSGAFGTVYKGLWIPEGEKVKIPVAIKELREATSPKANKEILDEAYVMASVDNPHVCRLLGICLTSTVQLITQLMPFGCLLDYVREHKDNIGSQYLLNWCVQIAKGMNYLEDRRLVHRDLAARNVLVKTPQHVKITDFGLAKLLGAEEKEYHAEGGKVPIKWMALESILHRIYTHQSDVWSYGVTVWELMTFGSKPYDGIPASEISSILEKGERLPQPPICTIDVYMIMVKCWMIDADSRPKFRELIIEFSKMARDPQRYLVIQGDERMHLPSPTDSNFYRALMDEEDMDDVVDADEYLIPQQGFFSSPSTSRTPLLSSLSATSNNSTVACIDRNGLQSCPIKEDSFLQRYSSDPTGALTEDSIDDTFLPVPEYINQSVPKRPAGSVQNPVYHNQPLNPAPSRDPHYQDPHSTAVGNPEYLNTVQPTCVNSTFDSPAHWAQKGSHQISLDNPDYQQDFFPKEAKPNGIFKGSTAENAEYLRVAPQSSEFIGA
T1 sequence (P00533 with tags, fused parts or gaps INS770SVD): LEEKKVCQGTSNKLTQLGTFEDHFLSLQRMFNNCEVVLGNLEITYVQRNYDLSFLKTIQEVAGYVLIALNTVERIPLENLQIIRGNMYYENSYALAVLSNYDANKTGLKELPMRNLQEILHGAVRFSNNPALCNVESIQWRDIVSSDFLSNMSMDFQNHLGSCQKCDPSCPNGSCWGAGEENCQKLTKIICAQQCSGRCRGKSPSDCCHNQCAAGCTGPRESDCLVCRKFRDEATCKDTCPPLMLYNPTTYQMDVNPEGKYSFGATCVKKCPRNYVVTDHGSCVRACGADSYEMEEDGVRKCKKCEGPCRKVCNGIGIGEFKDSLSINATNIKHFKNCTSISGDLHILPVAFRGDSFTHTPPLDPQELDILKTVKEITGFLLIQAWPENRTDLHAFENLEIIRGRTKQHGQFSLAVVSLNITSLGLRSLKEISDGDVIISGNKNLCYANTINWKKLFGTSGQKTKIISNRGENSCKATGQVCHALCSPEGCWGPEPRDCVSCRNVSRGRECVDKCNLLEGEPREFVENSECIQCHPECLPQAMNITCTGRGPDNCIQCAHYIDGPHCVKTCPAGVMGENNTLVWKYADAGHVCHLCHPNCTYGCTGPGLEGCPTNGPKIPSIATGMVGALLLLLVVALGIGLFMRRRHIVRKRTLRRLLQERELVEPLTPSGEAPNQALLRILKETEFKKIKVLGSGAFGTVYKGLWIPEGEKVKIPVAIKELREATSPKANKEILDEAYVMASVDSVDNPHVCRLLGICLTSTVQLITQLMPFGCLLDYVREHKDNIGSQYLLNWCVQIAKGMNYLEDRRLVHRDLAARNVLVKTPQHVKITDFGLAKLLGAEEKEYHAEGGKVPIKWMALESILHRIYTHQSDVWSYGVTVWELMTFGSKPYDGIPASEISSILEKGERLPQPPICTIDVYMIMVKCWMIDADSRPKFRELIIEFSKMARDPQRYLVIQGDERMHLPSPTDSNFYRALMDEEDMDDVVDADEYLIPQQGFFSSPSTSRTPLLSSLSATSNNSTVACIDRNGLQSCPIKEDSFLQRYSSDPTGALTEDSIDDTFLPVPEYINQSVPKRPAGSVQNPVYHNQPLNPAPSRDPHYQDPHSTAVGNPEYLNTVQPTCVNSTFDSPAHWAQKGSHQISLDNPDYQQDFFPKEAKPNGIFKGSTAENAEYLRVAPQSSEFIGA
T2 sequence (P00533 with tags, fused parts or gaps INS763FQEA): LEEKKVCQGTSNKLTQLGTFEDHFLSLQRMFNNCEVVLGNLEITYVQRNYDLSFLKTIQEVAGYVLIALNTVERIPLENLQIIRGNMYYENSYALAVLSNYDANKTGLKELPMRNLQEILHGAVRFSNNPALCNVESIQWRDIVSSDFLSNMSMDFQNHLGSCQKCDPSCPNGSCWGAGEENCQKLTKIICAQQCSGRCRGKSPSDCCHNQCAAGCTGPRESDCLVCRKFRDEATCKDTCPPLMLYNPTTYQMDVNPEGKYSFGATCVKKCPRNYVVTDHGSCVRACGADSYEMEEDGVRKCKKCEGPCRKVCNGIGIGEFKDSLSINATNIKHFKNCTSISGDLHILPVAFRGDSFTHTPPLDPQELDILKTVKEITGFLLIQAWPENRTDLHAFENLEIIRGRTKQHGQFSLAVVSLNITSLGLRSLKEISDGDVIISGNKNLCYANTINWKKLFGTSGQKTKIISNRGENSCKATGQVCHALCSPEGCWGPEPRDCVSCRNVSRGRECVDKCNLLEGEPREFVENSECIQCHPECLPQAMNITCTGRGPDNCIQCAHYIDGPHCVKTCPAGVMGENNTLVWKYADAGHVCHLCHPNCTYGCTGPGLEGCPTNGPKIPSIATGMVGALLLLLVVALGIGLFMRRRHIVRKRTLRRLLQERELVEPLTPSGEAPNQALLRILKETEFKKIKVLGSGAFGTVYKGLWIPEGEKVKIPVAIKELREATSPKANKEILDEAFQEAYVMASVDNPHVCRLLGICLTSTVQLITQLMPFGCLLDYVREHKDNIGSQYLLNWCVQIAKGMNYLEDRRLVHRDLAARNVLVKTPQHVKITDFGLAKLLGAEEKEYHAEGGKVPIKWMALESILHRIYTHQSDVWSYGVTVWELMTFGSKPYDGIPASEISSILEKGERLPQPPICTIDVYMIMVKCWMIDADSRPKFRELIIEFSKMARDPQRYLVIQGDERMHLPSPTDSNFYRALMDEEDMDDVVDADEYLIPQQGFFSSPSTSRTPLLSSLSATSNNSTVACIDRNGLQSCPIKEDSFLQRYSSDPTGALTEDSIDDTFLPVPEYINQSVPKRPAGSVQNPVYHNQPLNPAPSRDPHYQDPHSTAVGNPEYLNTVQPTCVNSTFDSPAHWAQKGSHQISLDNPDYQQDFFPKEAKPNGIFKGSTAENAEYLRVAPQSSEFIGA
T3 sequence (P00533 with tags, fused parts or gaps INS769ASV): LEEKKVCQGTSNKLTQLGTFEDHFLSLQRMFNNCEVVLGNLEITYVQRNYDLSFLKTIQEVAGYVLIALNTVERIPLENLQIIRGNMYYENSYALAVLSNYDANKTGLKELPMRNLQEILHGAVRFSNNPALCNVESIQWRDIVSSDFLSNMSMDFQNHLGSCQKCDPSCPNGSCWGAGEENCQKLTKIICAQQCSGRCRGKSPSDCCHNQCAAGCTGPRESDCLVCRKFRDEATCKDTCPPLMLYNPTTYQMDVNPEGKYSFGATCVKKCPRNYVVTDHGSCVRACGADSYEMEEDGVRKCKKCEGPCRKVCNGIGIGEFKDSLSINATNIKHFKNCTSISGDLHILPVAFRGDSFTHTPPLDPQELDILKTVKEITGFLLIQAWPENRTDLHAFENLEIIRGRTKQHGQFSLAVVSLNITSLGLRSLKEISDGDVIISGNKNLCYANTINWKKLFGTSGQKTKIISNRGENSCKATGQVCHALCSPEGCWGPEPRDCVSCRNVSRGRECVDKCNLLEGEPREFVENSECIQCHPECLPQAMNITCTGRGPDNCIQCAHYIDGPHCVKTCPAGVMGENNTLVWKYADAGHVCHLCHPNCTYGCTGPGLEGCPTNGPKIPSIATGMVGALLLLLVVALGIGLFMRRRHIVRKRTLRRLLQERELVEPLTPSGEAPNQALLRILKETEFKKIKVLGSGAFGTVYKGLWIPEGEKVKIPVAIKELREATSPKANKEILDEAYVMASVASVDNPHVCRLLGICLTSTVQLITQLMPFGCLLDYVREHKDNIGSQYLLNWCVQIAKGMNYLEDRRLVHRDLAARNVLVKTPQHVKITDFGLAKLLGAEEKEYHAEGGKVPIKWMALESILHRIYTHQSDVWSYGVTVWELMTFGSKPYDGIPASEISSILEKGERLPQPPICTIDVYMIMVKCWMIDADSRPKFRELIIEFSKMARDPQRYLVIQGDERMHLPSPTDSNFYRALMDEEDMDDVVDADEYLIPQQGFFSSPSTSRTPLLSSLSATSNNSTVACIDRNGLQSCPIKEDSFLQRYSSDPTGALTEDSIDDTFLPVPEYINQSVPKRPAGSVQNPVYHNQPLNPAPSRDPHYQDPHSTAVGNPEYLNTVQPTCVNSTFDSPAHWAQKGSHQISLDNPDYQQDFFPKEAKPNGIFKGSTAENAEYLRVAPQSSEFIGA

Structure (SMILES) | IC50 [1] | IC50 [2] | IC50 [3] | IC50 (EGFR WT (Ba/F3 cells)) | IC50 [4] | IC50 [5]
COc1c(Cl)cccc1Nc1c(-c2ccnc(N)n2)[nH]c2c1C(=O)N[C@H](C)C2 [187b] | < 100 nM | 100 to 1000 nM | < 100 nM | 100 to 1000 nM | < 100 nM | 
COc1c(C)cccc1Nc1c(-c2ccnc(N)n2)[nH]c2c1C(=O)NCC2 [compound 305] |  | 100 to 1000 nM |  | > 1000 nM | < 100 nM | 
Nc1nccc(-c2[nH]c3c(c2Nc2cccc(Cl)c2)C(=O)NCC3)n1 [compound 193] |  | 100 to 1000 nM |  | 100 to 1000 nM | < 100 nM | 
CCOc1c(Cl)cccc1Nc1c(-c2ccnc(N)n2)[nH]c2c1C(=O)NCC2 [Compound 700, 2-(2-aminopyrimidin-4-yl)-3-[(3-chloro-2-ethoxyphenyl)amino]-1H,5H,6H,7H-pyrrolo[3,2-c]pyridin-4-one; trifluoroacetic acid] |  | > 1000 nM |  | > 1000 nM | 100 to 1000 nM | 
COc1c(Cl)cccc1Nc1c(-c2ccnc3ccc(OCC(F)(F)F)nc23)[nH]c2c1C(=O)NCC2 [compound 763, 3-[(3-chloro-2-methoxyphenyl)amino]-2-[6-(2,2,2-trifluoroethoxy)-1,5-naphthyridin-4-yl]-1H,5H,6H,7H-pyrrolo[3,2-c]pyridin-4-one] | < 100 nM | 100 to 1000 nM | < 100 nM | 100 to 1000 nM |  | 100 to 1000 nM
COc1c(F)cccc1Nc1c(-c2ccncc2F)[nH]c2c1C(=O)NC[C@H]2CC1COC1 [469a] | > 1000 nM | > 1000 nM | > 1000 nM | > 1000 nM |  | > 1000 nM
Nc1nccc(-c2[nH]c3c(c2Nc2ccccc2Cl)C(=O)NCC3)n1 [compound 194] |  | 100 to 1000 nM |  | 100 to 1000 nM | < 100 nM | 
COc1c(Cl)cccc1Nc1c(-c2ccncc2F)[nH]c2c1C(=O)NC[C@@H]2CC1COC1 [468a] | > 1000 nM | > 1000 nM | > 1000 nM | > 1000 nM |  | 100 to 1000 nM
COc1c(Cl)cccc1Nc1c(-c2ccnc3ccc(OC4(C)CC4)nc23)[nH]c2c1C(=O)NCC2 [Compound 767, 3-[(3-chloro-2-methoxyphenyl)amino]-2-[6-(1-methylcyclopropoxy)-1,5-naphthyridin-4-yl]-1H,5H,6H,7H-pyrrolo[3,2-c]pyridin-4-one] | < 100 nM | < 100 nM | < 100 nM | < 100 nM |  | < 100 nM
COc1c(Cl)cccc1Nc1c(-c2ccnc3ccc(OC[C@@H]4CCO4)nc23)[nH]c2c1C(=O)NCC2 [compound 735, 3-[(3-chloro-2-methoxyphenyl)amino]-2-[6-[(2S)-oxetan-2-ylmethoxy]-1,5-naphthyridin-4-yl]-1H,5H,6H, 7H-pyrrolo[3,2-c]pyridin-4-one] | < 100 nM | < 100 nM | < 100 nM | 100 to 1000 nM |  | < 100 nM
COc1c(Cl)cccc1Nc1c(-c2ccnc3ccc(OC[C@H]4CCO4)nc23)[nH]c2c1C(=O)NCC2 [compound 734, 3-[(3-chloro-2-methoxyphenyl)amino]-2-[6-[(2R)-oxetan-2-ylmethoxy]-1,5-naphthyridin-4-yl]-1H,5H,6H,7H-pyrrolo[3,2-c]pyridin-4-one] | < 100 nM | < 100 nM | < 100 nM | 100 to 1000 nM |  | < 100 nM
COc1c(Cl)cccc1Nc1c(-c2ccnc3ccc(OCC4(C(F)(F)F)CC4)nc23)[nH]c2c1C(=O)NCC2 [compound 758, 3-[(3-chloro-2-methoxyphenyl)amino]-2-(6-[[1-(trifluoromethyl)cyclopropyl]methoxy]-1,5-naphthyridin-4-yl)-1H,5H,6H,7H-pyrrolo[3,2-c]pyridin-4-one] | 100 to 1000 nM | 100 to 1000 nM | 100 to 1000 nM | 100 to 1000 nM |  | 100 to 1000 nM
